pIC50: −log10 of the molar value. Like-named read-outs stand apart in the source and are kept apart here.
Assays:
Assay type in all cases: biochemical, rice (Oryza sativa var. Kinmaze)
[1] = molecular target: T1, GST fusion wild type ALS protein (Oryza sativa subsp. japonica, UniProt Q6K2E8); experiment: Herbicide sensitivity of ALS protein expressed in E. coli (crude enzyme solution), wild type; conditions: 37° C., 30 minutes, 10 mM valine, read-out: I50
T1 construct: an expression vector having the full-length wild type ALS cDNA incorporated into the Eco RI site of pGEX-2T; made in house; host or cells: E. coli JM109, pGEX-2T(ALS-wild); crude supernatant
Description: (§1) ALS activity resulting from the mutant ALS protein contained in the eluted fractions apportioned into each test tube for apportioning was measured as follows. A reaction solution to be used in a measurement reaction was prepared by mixing an eluted fraction to be measured with a solution comprising 20 mM sodium pyruvate, 0.5 mM TPP, 0.5 mM MgCl2, 10 μM FAD and 20 mM potassium phosphate buffer (pH 7.5). One ml of this reaction solution was used. After the eluted fraction to be measured was added, the measurement reaction was performed at 30° C. for 40 to 60 minutes. Then, the reaction was stopped by addition of 0.1 ml of 6N sulfuric acid (or 0.25 N sodium hydroxide).
(§2) After the reaction was stopped, the reaction solution was incubated at 60° C. for 10 minutes, thereby converting acetolactate contained in the reaction solution to acetoin.
Then, to quantify acetoin contained in the reaction solution, 1 ml of 0.5% (w/v) creatine and 1 ml of 5% (w/v) α-naphthol dissolved in 2.5 N sodium hydroxide was added to the reaction solution, followed by incubation at 37° C. for 10 minutes. Acetoin was then quantified by color comparison of the absorbance (at 525 nm) of the reaction solution, thereby evaluating ALS activity. In addition, since the reaction solution contained a small amount of sodium pyruvate, reaction time 0 was used as control. […]

[2] = molecular target: T2, GST fusion P171H/S627I mutant ALS protein (Oryza sativa subsp. japonica, UniProt Q6K2E8, P171H/S627I); experiment: Herbicide sensitivity of ALS protein expressed in E. coli (crude enzyme solution), P171H/S627I; conditions: for RS ratio: P171H/S627I mutant vs wild type; for Predicted RS ratio: product of RS ratios of the 1-point mutants
T2 construct: made in house; host or cells: E. coli, pGEX-2T(ALS-P171H, S627I mutant); crude supernatant
Description: as §1, §2
(§3) Then, to quantify acetoin contained in the reaction solution, 1 ml of 0.5% (w/v) creatine and 1 ml of 5% (w/v) α-naphthol dissolved in 2.5 N sodium hydroxide was added to the reaction solution, followed by incubation at 37° C. for 10 minutes. Acetoin was then quantified by color comparison of the absorbance (at 525 nm) of the reaction solution, thereby evaluating ALS activity. In addition, since the reaction solution contained a small amount of sodium pyruvate, reaction time 0 was used as control.
(§4) E. coli transformed with pGEX-2T(ALS-wild) constructed in Example 3(5), E. coli transformed with pGEX-2T(ALS-W548L mutant) constructed in Example 5, E. coli transformed with pGEX-2T(ALS-S627I mutant) constructed in Example 5, E. coli transformed with pGEX-2T(ALS P171H mutant) constructed in Example 6, E. coli transformed with pGEX-2T(ALS R172S mutant) constructed in Example 6, E. coli transformed with pGEX-2T(ALS P171H, R172S mutant) constructed in Example 7, E. coli transformed with pGEX-2T(ALS-P171H, W548L mutant) constructed in Example 8, E. coli transformed with pGEX-2T(ALS-P171H, S627I mutant) constructed in Example 8, and E. coli transformed with pGEX-2T(ALS-P171H, W548L, S627I mutant) constructed in Example 9 were respectively shake-cultured (pre-culture) at 27° C. in 2 ml of LB liquid medium containing ampicillin. These types of E. coli were respectively cultured in 250 ml of LB liquid medium containing ampicillin using 1 ml of the pre-culture solution. After culturing overnight, 1 mM IPTG was added to the media, and then culturing was performed for a further 3 to 4 hours, so that the expression of GST fusion protein was induced. In addition, the cells were stored at −80° C. after washing.
(§5) Preparation and purification of ALS from E. coli were performed by the following method. First, the pellet of the transformant E. coli stored at −80° C. was suspended in ALS extraction buffer (potassium phosphate buffer (pH 7.5) containing 30% glycerol and 0.5 mM MgCl2). Specifically, 2.5 ml of the buffer was added to the pellet obtained from 50 ml of the culture solution. The suspension was subjected to ultrasonication (Heat Systems-Ultrasonics, Sonicator W-225R, micro chip, output control 8, interval of approximately 1 second, twice (40 seconds each)), and subjected to centrifugation at 15000×g, 4° C. for 20 minutes, thereby obtaining the supernatant as a crude enzyme solution.
(§6) Herbicide sensitivity of the wild type ALS protein and that of mutant ALS protein were examined using the 9 types of crude enzyme solutions obtained in Example 10. Herbicide sensitivity test was performed according to procedures almost the same as those in Example 2. However, in this example, reaction temperature was 37° C., reaction time was 30 minutes, and 10 mM valine was added to the reaction solution to inhibit ALS activity derived from E. coli. Further, three types of herbicides, bispyribac-sodium, pyrithiobac-sodium, and pyriminobac, were used as PC herbicides; chlorsulfuron was used as a sulfonylurea herbicide; and imazaquin was used as an imidazolinon herbicide. […]

[3] = molecular target: T3, GST fusion W548L mutant ALS protein (Oryza sativa subsp. japonica, UniProt Q6K2E8, W548L); experiment: Herbicide sensitivity of ALS protein expressed in E. coli (crude enzyme solution), W548L; conditions: for RS ratio: W548L mutant vs wild type
T3 construct: an expression vector having the full-length wild type ALS cDNA incorporated into the Eco RI site of pGEX-2T; made in house; host or cells: E. coli JM109, pGEX 2T(ALS-W548L mutant); crude supernatant
Description: as §1, §2, §3, §4, §5, §6

[4] = molecular target: T4, GST fusion P171H mutant ALS protein (Oryza sativa subsp. japonica, UniProt Q6K2E8, P171H); experiment: Herbicide sensitivity of ALS protein expressed in E. coli (crude enzyme solution), P171H; conditions: for RS ratio: P171H mutant vs wild type
T4 construct: an expression vector having the full-length wild type ALS cDNA incorporated into the Eco RI site of pGEX-2T; made in house; host or cells: E. coli JM109, pGEX-2T(ALS P171H mutant); crude supernatant
Description: as §1, §2, §3, §4, §5, §6

[5] = molecular target: T5, GST fusion S627I mutant ALS protein (Oryza sativa subsp. japonica, UniProt Q6K2E8, S627I); experiment: Herbicide sensitivity of ALS protein expressed in E. coli (crude enzyme solution), S627I; conditions: for RS ratio: S627I mutant vs wild type
T5 construct: an expression vector having the full-length wild type ALS cDNA incorporated into the Eco RI site of pGEX-2T; made in house; host or cells: E. coli JM109, pGEX 2T(ALS-S627I mutant); crude supernatant
Description: as §1, §2, §3, §4, §5, §6

[6] = molecular target: T6, GST fusion R172S mutant ALS protein (Oryza sativa subsp. japonica, UniProt Q6K2E8, R172S); experiment: Herbicide sensitivity of ALS protein expressed in E. coli (crude enzyme solution), R172S; conditions: for RS ratio: R172S mutant vs wild type
T6 construct: an expression vector having the full-length wild type ALS cDNA incorporated into the Eco RI site of pGEX-2T; made in house; host or cells: E. coli JM109, pGEX-2T(ALS R172S mutant); crude supernatant
Description: as §1, §2, §3, §4, §5, §6

[7] = molecular target: T7, GST fusion P171H/W548L mutant ALS protein (Oryza sativa subsp. japonica, UniProt Q6K2E8, P171H/W548L); experiment: Herbicide sensitivity of ALS protein expressed in E. coli (crude enzyme solution), P171H/W548L; conditions: for RS ratio: P171H/W548L mutant vs wild type; for Predicted RS ratio: product of RS ratios of the 1-point mutants
T7 construct: made in house; host or cells: E. coli, pGEX-2T(ALS-P171H, W548L mutant); crude supernatant
Description: as §1, §2, §3, §4, §5, §6

[8] = molecular target: T8, GST fusion P171H/R172S mutant ALS protein (Oryza sativa subsp. japonica, UniProt Q6K2E8, P171H/R172S); experiment: Herbicide sensitivity of ALS protein expressed in E. coli (crude enzyme solution), P171H/R172S; conditions: for RS ratio: P171H/R172S mutant vs wild type; for Predicted RS ratio: product of RS ratios of the 1-point mutants
T8 construct: made in house; host or cells: E. coli JM109, pGEX-2T(ALS P171H, R172S mutant); crude supernatant
Description: as §1, §2, §3, §4, §5, §6

T3 sequence (Q6K2E8 44-644 W548L): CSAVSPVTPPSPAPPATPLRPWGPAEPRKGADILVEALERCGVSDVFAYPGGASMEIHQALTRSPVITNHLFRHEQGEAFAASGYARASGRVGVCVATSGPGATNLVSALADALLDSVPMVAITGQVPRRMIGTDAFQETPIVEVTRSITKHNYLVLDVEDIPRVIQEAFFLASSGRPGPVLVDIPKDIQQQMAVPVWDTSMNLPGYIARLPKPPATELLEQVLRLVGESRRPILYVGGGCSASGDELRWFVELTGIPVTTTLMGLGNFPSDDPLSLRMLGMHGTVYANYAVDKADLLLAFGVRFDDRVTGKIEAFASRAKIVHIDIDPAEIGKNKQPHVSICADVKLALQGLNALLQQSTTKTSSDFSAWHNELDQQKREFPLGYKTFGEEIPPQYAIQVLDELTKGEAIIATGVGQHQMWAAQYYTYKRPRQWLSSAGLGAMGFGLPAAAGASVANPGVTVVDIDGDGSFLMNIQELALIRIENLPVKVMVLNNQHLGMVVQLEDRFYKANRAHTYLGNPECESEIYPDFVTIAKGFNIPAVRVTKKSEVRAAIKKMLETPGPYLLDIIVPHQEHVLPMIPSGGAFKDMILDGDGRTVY
T6 sequence (Q6K2E8 44-644 R172S): as the sequence (Q6K2E8 44-644 W548L) above, with R129S, L505W counted along it
T5 sequence (Q6K2E8 44-644 S627I): as the sequence (Q6K2E8 44-644 W548L) above, with L505W, S584I counted along it
T7 sequence (Q6K2E8 44-644 P171H/W548L): as the sequence (Q6K2E8 44-644 W548L) above, with P128H counted along it
T8 sequence (Q6K2E8 44-644 P171H/R172S): as the sequence (Q6K2E8 44-644 W548L) above, with P128H, R129S, L505W counted along it
T2 sequence (Q6K2E8 44-644 P171H/S627I): as the sequence (Q6K2E8 44-644 W548L) above, with P128H, L505W, S584I counted along it
T4 sequence (Q6K2E8 44-644 P171H): as the sequence (Q6K2E8 44-644 W548L) above, with P128H, L505W counted along it
T1 sequence (Q6K2E8 44-644): as the sequence (Q6K2E8 44-644 W548L) above, with L505W counted along it

Compound	RS ratio/ predicted RS ratio ([2]; P171H/S627I mutant)	RS ratio [2]	Predicted RS ratio ([2]; P171H/S627I mutant)	RS ratio [3]	RS ratio [4]	RS ratio [5]	RS ratio [6]	RS ratio [7]	Predicted RS ratio ([7]; P171H/W548L mutant)	RS ratio/ predicted RS ratio ([8]; P171H/R172S mutant)	RS ratio [8]	Predicted RS ratio ([8]; P171H/R172S mutant)	other results
CON=C(C)c1cccc(Oc2nc(OC)cc(OC)n2)c1C(=O)O [pyriminobac]	>0.93	>13000	14000	4500	5	2800	1.2	>13000	23000	0.85	5.1	6	pIC50 [1]: 8.10; inhibition % at the highest concentration among the concentrations tested ([2]; P171H/S627I mutant, in 100 μM): 21%; pIC50 ([3]; W548L mutant, 37° C., 30 minutes, 10 mM valine, read-out: I50): 4.44; pIC50 ([4]; P171H mutant, 37° C., 30 minutes, 10 mM valine, read-out: I50): 7.40; pIC50 ([5]; S627I mutant, 37° C., 30 minutes, 10 mM valine, read-out: I50): 4.66; pIC50 ([6]; R172S mutant, 37° C., 30 minutes, 10 mM valine, read-out: I50): 8.04; RS ratio/ predicted RS ratio ([7]; P171H/W548L mutant): >0.57; inhibition % at the highest concentration among the concentrations tested ([7]; P171H/W548L mutant, in 100 μM): 11%; pIC50 ([8]; P171H/R172S mutant, 37° C., 30 minutes, 10 mM valine, read-out: I50): 7.39
COc1cc(OC)nc(Sc2cccc(Cl)c2C(=O)O)n1 [pyrithiobac-sodium]	1.3	850	680	>9100	3.4	200	1	>9100	>31000	3.8	13	3.4	pIC50 [2]: 5.03; inhibition at 100 µM ([3]; read-out: inhibition % at the highest concentration among the concentrations tested, W548L mutant, in 100 μM): 41%; pIC50 [4]: 7.43; pIC50 [5]: 5.66; pIC50 [6]: 7.96; inhibition at 100 µM ([7]; read-out: inhibition % at the highest concentration among the concentrations tested, P171H/W548L mutant, in 100 μM): 20%; pIC50 [8]: 6.85
